4 molecules from patent publication US7262177B2, “Conjugates of glycosylated/galactosylated peptide, bifunctional linker, and nucleotidic monomers/polymers, and related compositions and methods of use” (priority 2000, dated 2007) can be followed below.

Like-named read-outs stand apart in the source and are kept apart here.

The target in data set [1] is T1, thymidylate synthase (TS) (Homo sapiens, UniProt P04818).
T1 construct: endogenous in cells; host or cells: Hep G2
Description: Thymidylate synthase activity in treated Hep G2 cells. Particulars: 1 μM, 96 hrs post treatment. The data set is classed as cell-based.
Description: Briefly, 10^5 Hep G2 or TSU cells were grown in culture for 48 h and then the medium was made to a concentration of 1 μM with either po 1-mer or unconjugated 5FdU. At regular intervals (24 hrs, 48 hrs, 72 hrs and 96 hrs) after treatment, the medium was removed and replaced with medium containing deoxyuridine/[^3H]-deoxyuridine mixtures. Cells were incubated at 37° C. for 30 min. Cell medium was then removed and precipitated with charcoal. The supernatant was then counted to determine the presence of [^3H]-H2O. The measurable release of [^3H] as [^3H]-H2O from deoxyuridine, 5′-monophosphate (dUMP) substrate reflects thymidylate synthase activity.

The target of data set [2] is T2, thymidylate synthetase (TS) (Mus musculus, UniProt P07607).
T2 construct: from tissue; host or cells: CD-1 mouse liver, supernatant of homogenate
T2 sequence (P07607 whole entry): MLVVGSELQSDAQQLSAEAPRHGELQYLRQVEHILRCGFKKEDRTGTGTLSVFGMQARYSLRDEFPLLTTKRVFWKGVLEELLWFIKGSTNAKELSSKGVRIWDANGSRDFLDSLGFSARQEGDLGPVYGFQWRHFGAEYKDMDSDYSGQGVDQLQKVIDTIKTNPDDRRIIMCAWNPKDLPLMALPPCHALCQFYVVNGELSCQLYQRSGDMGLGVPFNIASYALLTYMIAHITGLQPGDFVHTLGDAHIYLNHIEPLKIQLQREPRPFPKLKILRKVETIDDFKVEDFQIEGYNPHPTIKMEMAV
Description: Thymidylate synthetase activity in mouse liver extract ([5-3H]-dUMP tritium release). The format is biochemical, CD-1 mouse. As to the method:
A CD-1 mouse (Charles River, Wilmington, Mass.) was sacrificed and the liver removed. Approximately one gram of the tissue was subsequently washed in DPBS (Mediatech, Herndon, Va.) and placed in 3 volumes of buffer H. The tissue was then homogenized with a Dounce homogenizer and subsequently sonicated by three 15-second bursts followed by 1 min on ice. The tissue extract was then centrifuged for 10 min at 4,000 g and the resultant supernatant was spun for 20 min at 7,000 g. Three equal aliquots of this supernatant were then added to 0.9 μCi aliquots of 2′-Deoxyuridine 5′-monophosphate, diammonium salt, [5-^3H]. At this point, 5-Fluoro-2′-deoxyuridine 5′-monothiophosphate was added to one aliquot, 5-Fluoro-2′-deoxyuridine 5′-monophosphate was added to a second aliquot, and one aliquot was left untreated. The three samples were incubated at 37° C. for 30 min and precipitated with charcoal. The resultant supernatant was centrifuged at 1,600 g for 10 min. Aliquots of each sample were then counted using a Beckman scintillation counter. Percent (%) inhibition is expressed as follows: […]
These assays determined the ability of either 10 nM FdUMP (phosphodiester substrate) or FdUMPS (phosphorothioate substrate) to inhibit thymidylate synthetase (TS) activity. The objective of this assay was to determine the ability of TS to convert [5-^3H]-dUMP to ^3H-H2O.

A short description of data set [3]: Stability of 1-mer conjugates in RPMI 1640+10% FCS (PAGE). The format is in vitro ADME. Particulars: up to 8 hrs, PAGE analysis. As to the method: Initially, the stability of the two neoglycoconjugates was assessed in RPMI 1640+10% FCS. […] In terms of cellular uptake, the po-linked conjugate at a dose of 1 μM was taken up rapidly in a progressive manner by Hep G2 cells in vitro to the extent of 24.75 pmoles/10^6 cells at 480 min. The rate of cellular uptake was next analyzed with respect to the administered dose of the conjugate. […] This amount doubled within the next 30 min and peaked at 25 pmoles/million cells at 480 min. […] While the administration of 4 μM conjugate led to a linear increase of conjugate uptake with respect to time, the rate at which cellular uptake occurred upon the administration of 8 μM conjugate rose sharply at 120 min.

Data set [4] concerns Hep G2 cells. Description: Cellular uptake of 5FU 1-mer conjugates by Hep G2 cells. The data set is classed as cell-based, human. Particulars: 1 μM, 480 min. As for the experimental part: Hep G2 cells were passaged into 2 cm^2 wells and grown in RPMI 1640 medium, which was supplemented with L-glutamine (10-040, CV) to a density of 0.3×10^6 to 0.4×10^6 cells per well (48-well cluster plate, Costar, Cambridge, Mass.). […] Then, an aliquot of the medium was saved for scintillation counting and the remainder of the medium aspirated from the well. The cells were washed with D-PBS (2×0.5 ml), treated with 0.25% trypsin (37° C., 2 minutes; trypsin prepared in HBSS with 1.0 mM EDTA) and suspended in fresh growth medium containing 10% FCS. The suspended cells were layered over silicon oil (0.5 ml) in a 1.7 ml conical microcentrifuge tube and pelleted by centrifugation at 14,000 rpm (12,000 g) for 30 seconds. The supernatant was carefully decanted and the cell pellet was lysed with 100 μl of a solution containing 0.5% NP 40, 100 mM sodium chloride, 14 mM Tris/HCl and 30% acetonitrile. The amount of radioactivity, and by inference the amount of neoglycoconjugate or oligomer associated with the cell lysate, was determined by scintillation counting.
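Wherever % injected dose in BLADDER is given: male CD-1 mice given radiolabeled test agent intravenously, organs removed at each time point and dissolved, radioactivity per organ measured by scintillation counting with efficiency correction.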
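Wherever % injected dose in BLOOD is given: male CD-1 mice given radiolabeled test agent intravenously, organs removed at each time point and dissolved, radioactivity per organ measured by scintillation counting with efficiency correction.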
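Wherever % injected dose in HEART is given: male CD-1 mice given radiolabeled test agent intravenously, organs removed at each time point and dissolved, radioactivity per organ measured by scintillation counting with efficiency correction.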
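Wherever % injected dose in KIDNEY is given: male CD-1 mice given radiolabeled test agent intravenously, organs removed at each time point and dissolved, radioactivity per organ measured by scintillation counting with efficiency correction.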

T1 sequence (P04818 2-313 limits assumed): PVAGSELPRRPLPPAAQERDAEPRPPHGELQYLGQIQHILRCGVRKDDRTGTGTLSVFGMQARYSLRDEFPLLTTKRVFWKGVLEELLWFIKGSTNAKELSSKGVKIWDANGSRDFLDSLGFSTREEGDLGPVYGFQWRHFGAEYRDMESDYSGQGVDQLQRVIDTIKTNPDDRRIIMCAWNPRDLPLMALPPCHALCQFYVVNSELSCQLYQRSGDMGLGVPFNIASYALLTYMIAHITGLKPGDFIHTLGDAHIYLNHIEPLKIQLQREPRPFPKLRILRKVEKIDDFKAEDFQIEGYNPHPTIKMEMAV

Turning to `O=c1[nH]c(=O)n([C@H]2C[C@H](O)[C@@H](CO)O2)cc1F` [5FdU, 5-fluoro-2′-deoxyuridine], for the setting “15 MIN after tail vein i.v.”, the “% injected dose in BLADDER” value came to 0.91 ± 0.07%, the “% injected dose in BLOOD” value stood at 0.03 ± 0.02%, the “% injected dose in HEART” value worked out at 0.21 ± 0.13% and the “% injected dose in KIDNEY” value was found to be 0.42 ± 0.28%. In addition, under “15 MIN after tail vein i.v.”, the “% injected dose in LG INT” value amounted to 1.09 ± 0.25%, the “% injected dose in LIVER” value is 9.56 ± 3.83%, the “% injected dose in LUNGS” value came to 0.17 ± 0.07% and the “% injected dose in MUSCLE” value is listed as 9.29 ± 4.9%. Also, under “15 MIN after tail vein i.v.”, the “% injected dose in SM INT” value was 0.7 ± 0.04% and the “% injected dose in SPLEEN” value is on record as 0.11 ± 0.044%. Further, the “% injected dose in LIVER” value (15 MIN after tail vein i.v., listed as unconjugated 5FdU) is “less than 10%”. In addition, where the note is “30 MIN after tail vein i.v.”, the “% injected dose in BLADDER” value was 2.3 ± 1.58%, the “% injected dose in BLOOD” value was “.008 ± .0025%”, the “% injected dose in HEART” value was 0.03 ± .004% and the “% injected dose in KIDNEY” value is 0.38 ± 0.3%. Moreover, for the setting “30 MIN after tail vein i.v.”, the “% injected dose in LG INT” value amounted to 0.37 ± 0.19%, the “% injected dose in LIVER” value is reported as 8.8 ± 1.23%, the “% injected dose in LUNGS” value turned out to be 0.05 ± 0.006% and the “% injected dose in MUSCLE” value was 3.43 ± 1.06%. Further, under “30 MIN after tail vein i.v.”, the “% injected dose in SM INT” value came out at 0.61 ± 0.36% and the “% injected dose in SPLEEN” value was 0.19 ± 0.26%. For the same molecule, where the note is “60 MIN after tail vein i.v.”, the “% injected dose in BLADDER” value is listed as 2.99 ± 1.01%, the “% injected dose in BLOOD” value was “.007 ± .0023%”, the “% injected dose in HEART” value came out at 0.28 ± 0.11% and the “% injected dose in KIDNEY” value is 0.84 ± 0.31%. In addition, under “60 MIN after tail vein i.v.”, the “% injected dose in LG INT” value was determined as 1.04 ± 0.2%, the “% injected dose in LIVER” value was determined as 4.35 ± 1.35%, the “% injected dose in LUNGS” value is listed as 0.98 ± 0.3% and the “% injected dose in MUSCLE” value is 22.84%. Moreover, under “60 MIN after tail vein i.v.”, the “% injected dose in SM INT” value amounted to 3.57 ± 1.3% and the “% injected dose in SPLEEN” value turned out to be 0.57 ± 0.18%. Also, for the setting “240 MIN after tail vein i.v.”, the “% injected dose in BLADDER” value is 0.010 ± .015%, the “% injected dose in BLOOD” value was determined as 0.56 ± 0.28%, the “% injected dose in HEART” value was 0.32 ± 0.10% and the “% injected dose in KIDNEY” value came out at 0.44 ± 0.12%. For the same molecule, under “240 MIN after tail vein i.v.”, the “% injected dose in LG INT” value stood at 1.61 ± 0.59%, the “% injected dose in LIVER” value came out at 3.97 ± 0.37%, the “% injected dose in LUNGS” value was 1.03 ± 0.39% and the “% injected dose in MUSCLE” value was found to be 46.56%. For the same molecule, where the note is “240 MIN after tail vein i.v.”, the “% injected dose in SM INT” value is 4.19 ± 1.18% and the “% injected dose in SPLEEN” value came out at 0.38 ± 0.04%. Besides, for the setting “480 MIN after tail vein i.v.”, the “% injected dose in BLADDER” value was “.001 ± .0006%”, the “% injected dose in BLOOD” value is on record as 0.23 ± 0.14%, the “% injected dose in HEART” value is 0.06 ± .02% and the “% injected dose in KIDNEY” value is recorded as 0.13 ± .044%. Besides, for the setting “480 MIN after tail vein i.v.”, the “% injected dose in LG INT” value is given as 0.35 ± 0.09%, the “% injected dose in LIVER” value worked out at 1.25 ± 0.33%, the “% injected dose in LUNGS” value worked out at 0.08 ± 0.04% and the “% injected dose in MUSCLE” value is reported as 7.9 ± 1.64%. For the same molecule, where the note is “480 MIN after tail vein i.v.”, the “% injected dose in SM INT” value is given as 1.37 ± 0.7% and the “% injected dose in SPLEEN” value was 0.09 ± 0.05%. Moreover, in data set [1], the “reduction of TS activity” value is listed as “approximately 20%”.

Broadly, the inhibition is how much of the control response was suppressed. On to `O=c1[nH]c(=O)n([C@H]2C[C@H](O)[C@@H](COP(=O)(O)O)O2)cc1F` [FdUMP, 5-Fluoro-2′-deoxyuridine 5′-monophosphate], for which, in data set [2] (10 nM), the “biological activity relative to FdUMPS” value is reported as “approximately twice”. Besides, the inhibition at 0.01 µM came out at 48% in data set [2] (10 nM inhibitor, 1 μM dUMP, read-out: Percent Inhibition of Thymidylate Synthetase Activity) and 28% in data set [2] (10 nM inhibitor, 10 μM dUMP, read-out: Percent Inhibition of Thymidylate Synthetase Activity).

Consider `O=c1[nH]c(=O)n([C@H]2C[C@H](O)[C@@H](COP(O)(O)=S)O2)cc1F` [FdUMPS, 5-Fluoro-2′-deoxyuridine 5′-monothiophosphate], for which the inhibition at 0.01 µM in data set [2] (read-out: Percent Inhibition of Thymidylate Synthetase Activity, 10 nM inhibitor, 1 μM dUMP) stood at 27%; in data set [2] (read-out: Percent Inhibition of Thymidylate Synthetase Activity, 10 nM inhibitor, 10 μM dUMP), 13%.

As for `CC(=O)N[C@H]1[C@H](OCCCCCCNC(=O)CC[C@H](NC(=O)CC[C@H](NC(=O)[C@H](Cc2ccc(O)cc2)NC(=O)C2CCC(CN3C(=O)CC(SCCCCCCOP(O)(=S)OC[C@H]4O[C@@H](n5cc(F)c(=O)[nH]c5=O)C[C@@H]4O)C3=O)CC2)C(=O)NCCCCCCO[C@@H]2O[C@H](CO)[C@H](O)[C@H](O)[C@H]2NC(C)=O)C(=O)NCCCCCCO[C@@H]2O[C@H](CO)[C@H](O)[C@H](O)[C@H]2NC(C)=O)O[C@H](CO)[C@H](O)[C@@H]1O` (some centres unmarked) [ps 1-mer, YEE(ahGalNAc)3-SMCC-psFU], the “stability in media containing 10% FCS” value in data set [3] is listed as “stable”. Besides, the cellular uptake in data set [4] came out at 24.98 pmoles/10^6 cells.
